Measured values as given in PMC6661775 (BMC Chemistry, 2019).

Legend:
[1] = Antioxidant activity by DPPH method; details: DPPH radical scavenging, 517 nm; ± SEM
Experimental: This method opted for evaluation of free radical scavenging activity of DPPH was based on modified procedure described by […] et al.. The tested compounds were prepared in methanolic solution and reacted with methanolic solution of DPPH at 37 °C. The reaction mixture was prepared in 96-well plate by adding 50 μL of sample, 50 μl of methanol and 50 μl of DPPH solution prepared in 0.1 mM methanol. The mechanism of action of DPPH assay was based on the fact that DPPH radical get reduced during its reaction with an antioxidant compound and results in changes of color (from deep violet to light yellow). […] The mixture of methanol (5.0 ml) and tested compounds (0.2 ml) serve as blank. Ascorbic acid served as positive control.

[2] = Hydrogen peroxide scavenging (H2O2) assay; details: 230 nm, pH 7.4, ± SEM, read-out: IC50 (µM) ± SEM, H2O2 method
Experimental: The solution of H2O2 (100 mM) was prepared via adding up different concentrations of synthesized derivatives ranging from 5 to 80 μg/ml to H2O2 solution (2 ml), prepared in 20 mM phosphate buffer of pH 7.4. Finally, the absorbance of H2O2 was measured at 230 nm after incubating for 10 min next to a blank reading of phosphate buffer without H2O2. For every measurement, a fresh reading of blank was taken to carry out background correction. For control sample containing H2O2 was scanned for absorbance at 230 nm. Results calculated as percentage of hydrogen peroxide inhibition was estimated by the formula [(Ab–At)/[…]] × 100, where Ab is the absorbance of the control and At is the absorbance of compounds/standard taken as L-ascorbic acid (5–80 μg/ml) are shown in Table 5.

[3] = system: T1, xanthine oxidase; experiment: Enzyme kinetic analysis for XO-inhibitory activity (Michaelis-Menten, Lineweaver-Burk); format: biochemical, human
T1 construct: purchased Sigma (Sigma-Aldrich) MAK078
Experimental: Firstly Michaelis–Menten curve was plotted for the enzyme activity at different concentrations of RU3a3 against different concentration of substrate (xanthine) Fig. 11.
Then double reciprocal plot (Lineweaver–Burk) analysis was done in the presence (0.25, 0.5, and 1.0 µM) and absence of RU3a3 from in vitro data generated during the oxidation of xanthine in presence of xanthine oxidase (Fig. 12). The x- and y axis intercepts of the Lineweaver–Burk plot were utilized to calculate Km and Vmax values of RU3a3 at different concentrations (Table 4).

T1 sequence (P47989 whole entry): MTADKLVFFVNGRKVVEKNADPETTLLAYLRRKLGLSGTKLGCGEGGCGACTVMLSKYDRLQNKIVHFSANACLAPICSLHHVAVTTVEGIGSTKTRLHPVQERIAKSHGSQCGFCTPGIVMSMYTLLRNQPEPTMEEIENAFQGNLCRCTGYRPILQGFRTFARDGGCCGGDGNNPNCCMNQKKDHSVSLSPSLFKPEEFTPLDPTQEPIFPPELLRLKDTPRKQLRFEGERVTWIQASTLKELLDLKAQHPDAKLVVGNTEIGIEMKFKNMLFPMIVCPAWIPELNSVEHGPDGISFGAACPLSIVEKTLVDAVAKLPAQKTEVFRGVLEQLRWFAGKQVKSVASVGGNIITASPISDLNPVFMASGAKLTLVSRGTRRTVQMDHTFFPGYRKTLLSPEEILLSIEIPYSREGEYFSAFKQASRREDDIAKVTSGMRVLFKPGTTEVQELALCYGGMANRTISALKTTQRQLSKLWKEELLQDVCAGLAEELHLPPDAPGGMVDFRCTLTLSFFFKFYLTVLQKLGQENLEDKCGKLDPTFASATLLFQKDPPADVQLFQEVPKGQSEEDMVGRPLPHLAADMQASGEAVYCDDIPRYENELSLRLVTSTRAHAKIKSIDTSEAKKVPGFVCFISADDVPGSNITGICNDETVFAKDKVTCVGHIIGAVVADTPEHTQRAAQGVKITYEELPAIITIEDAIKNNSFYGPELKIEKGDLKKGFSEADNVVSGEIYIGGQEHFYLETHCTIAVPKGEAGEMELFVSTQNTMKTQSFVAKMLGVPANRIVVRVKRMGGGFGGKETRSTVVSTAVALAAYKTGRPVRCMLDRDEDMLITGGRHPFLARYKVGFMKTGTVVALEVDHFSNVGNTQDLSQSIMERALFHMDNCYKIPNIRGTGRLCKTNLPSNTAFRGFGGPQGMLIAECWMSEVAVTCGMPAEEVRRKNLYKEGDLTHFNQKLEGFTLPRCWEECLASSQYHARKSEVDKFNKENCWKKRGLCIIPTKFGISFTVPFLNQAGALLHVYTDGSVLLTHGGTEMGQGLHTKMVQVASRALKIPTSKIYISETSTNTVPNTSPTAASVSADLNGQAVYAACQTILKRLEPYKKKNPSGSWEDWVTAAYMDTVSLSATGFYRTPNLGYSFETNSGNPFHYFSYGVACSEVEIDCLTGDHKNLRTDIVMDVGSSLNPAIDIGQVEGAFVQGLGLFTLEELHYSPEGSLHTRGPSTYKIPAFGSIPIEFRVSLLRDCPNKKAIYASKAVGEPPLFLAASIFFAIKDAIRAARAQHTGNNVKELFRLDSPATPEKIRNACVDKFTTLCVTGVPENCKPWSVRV

IC50 [1] [µM]	IC50 [2] [µM]	Vmax of xanthine oxidase ([3]; Conc. of RU3a3 0.25 µM) [µmol/min]	Vmax of xanthine oxidase ([3]; Conc. of RU3a3 0.5 µM) [µmol/min]	Vmax of xanthine oxidase ([3]; Conc. of RU3a3 1.0 µM) [µmol/min]	Manner of xanthine oxidase inhibition ([3]; Lineweaver-Burk plot)	SMILES
8.48 ± 0.25	4.378 ± 0.01					CC1OC(OCC2OC(Oc3c(-c4ccc(O)c(O)c4)oc4cc(O)cc(O)c4c3=Nc3ccc([N+](=O)[O-])cc3)C(O)C(O)C2O)C(O)C(O)C1O (centres unmarked) [RU4b2]
8.728 ± 0.02	4.146 ± 0.01					CC1OC(OCC2OC(Oc3c(-c4ccc(O)c(O)c4)oc4cc(O)cc(O)c4c3=NNC(=S)Nc3ccccc3)C(O)C(O)C2O)C(O)C(O)C1O (centres unmarked) [RU3a2]
2.65 ± 0.09	9.86 ± 0.25					CC1OC(OCC2OC(Oc3c(-c4ccc(O)c(O)c4)oc4cc(O)cc(O)c4c3=Nc3ccc([N+](=O)[O-])cc3Cl)C(O)C(O)C2O)C(O)C(O)C1O (centres unmarked) [RU4b1]
11.688 ± 0.01	6.56 ± 0.1	114.4	108.2	98.7	competitive manner	CC1OC(OCC2OC(Oc3c(-c4ccc(O)c(O)c4)oc4cc(O)cc(O)c4c3=NNc3ccccc3)C(O)C(O)C2O)C(O)C(O)C1O (centres unmarked) [RU3a3]
5.02 ± 0.1	9.13 ± 0.35					CC1OC(OCC2OC(Oc3c(-c4ccc(O)c(O)c4)oc4cc(O)cc(O)c4c3=NNC(N)=S)C(O)C(O)C2O)C(O)C(O)C1O (centres unmarked) [RU3a1]
7.69 ± 0.42	17.9 ± 0.41					COc1cc(OC)c2c(=O)c(OC(=O)/C=C/c3ccccc3)c(-c3ccc(OC)c(OC)c3)oc2c1 [RU7c3]
6.06 ± 0.13	14.7 ± 0.6					COc1cc(OC)c2c(=O)c(OC(=O)c3cccnc3)c(-c3ccc(OC)c(OC)c3)oc2c1 [RU7c1]
14.669 ± 0.01	12.1 ± 0.2					COc1cc(OC)c2c(=O)c(OC(=O)c3ccccc3O)c(-c3ccc(OC)c(OC)c3)oc2c1 [RU7c2]
